Values quoted from earlier work, collected in patent US20130029422A1, “Composite Substrate for 3D Cell Culture” (priority 2011, published 2013).

Conditions: during culture of breast cancer cells

## estrogen
  extraction from cell culture medium by PDMS-based cell culture articles: extract estrogen from cell culture medium
